pIC50: −log10 of the molar value. Entries after “also recorded” stand apart in the source; their conditions may differ.
Columns and labels:
[1] = test system: nAChRs on SuSC GABAergic terminals (crude synaptosomes); assay type: biochemical, mouse
[2] = test system: α6* nAChRs, crude rat striatal synaptosomes; settings: cited from earlier work
[3] = test system: α6β2*-nAChR, crude striatal synaptosomes; assay type: biochemical, mouse
α6β2* and α3β2* nAChR = settings: cited from earlier work

## α-conotoxin PIA [α-CtxPIA]
[1]
  effect on ACh-evoked [^3H]-GABA release (abstract): did not affect [^3H]-GABA release
  inhibition of ACh-stimulated [^3H]-GABA release by 100nM α-CtxPIA: completely unable to inhibit
  inhibition of ACh-stimulated [^3H]-GABA release by α-CtxPIA: could not be reliably fit to an inhibition model; also recorded: no significant inhibition
[2]
  reversibility of inhibition of DA release: slowly reversible
[2]; read-out: IC50, inhibition of DA release stimulated by nicotine or ACh
  pIC50: 8.83
[3]
  inhibition of ACh-stimulated [^3H]-dopamine release: 24.2 ± 3.3%
α6β2* and α3β2* nAChR
  subtypes inhibited by the α-conotoxin: selective inhibitor of α6β2*-nAChR
